The target in assay [1] is T1, Ayr1 (Saccharomyces cerevisiae, UniProt P40471, G20A/G22A).
T1 construct: ORF with His10 tag, expressed in E. coli BL21(DE3), purified in urea, reconstituted into liposomes / planar lipid bilayer; 33 kD
T1 sequence (P40471 1-297 G20A/G22A): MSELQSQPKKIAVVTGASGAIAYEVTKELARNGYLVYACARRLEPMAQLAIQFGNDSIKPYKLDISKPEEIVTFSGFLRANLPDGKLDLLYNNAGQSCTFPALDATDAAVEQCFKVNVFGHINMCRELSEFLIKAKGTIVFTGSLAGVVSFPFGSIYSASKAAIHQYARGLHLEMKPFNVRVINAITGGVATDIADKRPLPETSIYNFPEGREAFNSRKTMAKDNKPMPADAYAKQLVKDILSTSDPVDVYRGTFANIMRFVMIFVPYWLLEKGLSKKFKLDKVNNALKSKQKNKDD
The assay can be described thus: planar lipid bilayer electrophysiology, reconstituted channel. The format is biochemical. The following applies: 1 mM NADPH; symmetrical 250 mM KCl, pH 7.0; activator of channel gating; NADPH-binding motif mutant, effect mostly abolished.

In assay [2] the target is T2, Ayr1 (Saccharomyces cerevisiae, UniProt P40471).
T2 construct: ORF with His10 tag, expressed in E. coli BL21(DE3), purified in urea, reconstituted into liposomes / planar lipid bilayer; 33 kD
T2 sequence (P40471 1-297): T1 sequence (P40471 1-297 G20A/G22A) with A20G, A22G
The description is as above. It counts as biochemical. The following applies: 1 mM NADPH; symmetrical 250 mM KCl, pH 7.0; activator of channel gating.

Molecules are shown by their SMILES. Where a chain is given by its changes, count along the chain named.

In the case of `NC(=O)C1=CN([C@@H]2O[C@H](COP(=O)(O)OP(=O)(O)OC[C@H]3O[C@@H](n4cnc5c(N)ncnc54)[C@H](OP(=O)(O)O)[C@@H]3O)[C@@H](O)[C@H]2O)C=CC1` [NADPH], the “planar lipid bilayer electrophysiology, reconstituted channel” value on Ayr1 [1] was “the effect of NAPDH was mostly abolished, and no increase of the gating frequency was observed”; at Ayr1 [2] it was “NADPH strongly stimulated the frequency of gating between the distinct states”.

The record behind these values is PMC5674900, “Identification of new channels by systematic analysis of the mitochondrial outer membrane” (The Journal of Cell Biology, 2017).
